# In US20120264735A1 (priority 2009, published 2012):
# Target: T1, c-Met kinase (recombinant c-Met) (Homo sapiens, UniProt P08581)
# T1 construct: 0.27 nM recombinant c-Met
# Assay: In vitro kinase assay I (homogeneous time-resolved fluorescence tyrosine kinase assay)
# Assay type: biochemical
# Outline: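 Biotinylated peptide (0.5 μM) phosphorylated by 0.2 nM recombinant c-Met with 50 μM MgATP, 60 min at room temperature, pH 7.4, 5% DMSO. EDTA stop; HTRF read with Eu-anti-phosphotyrosine antibody and streptavidin-APC. IC50 from 4-parameter logistic fit.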
# T1 sequence (P08581 25-1390): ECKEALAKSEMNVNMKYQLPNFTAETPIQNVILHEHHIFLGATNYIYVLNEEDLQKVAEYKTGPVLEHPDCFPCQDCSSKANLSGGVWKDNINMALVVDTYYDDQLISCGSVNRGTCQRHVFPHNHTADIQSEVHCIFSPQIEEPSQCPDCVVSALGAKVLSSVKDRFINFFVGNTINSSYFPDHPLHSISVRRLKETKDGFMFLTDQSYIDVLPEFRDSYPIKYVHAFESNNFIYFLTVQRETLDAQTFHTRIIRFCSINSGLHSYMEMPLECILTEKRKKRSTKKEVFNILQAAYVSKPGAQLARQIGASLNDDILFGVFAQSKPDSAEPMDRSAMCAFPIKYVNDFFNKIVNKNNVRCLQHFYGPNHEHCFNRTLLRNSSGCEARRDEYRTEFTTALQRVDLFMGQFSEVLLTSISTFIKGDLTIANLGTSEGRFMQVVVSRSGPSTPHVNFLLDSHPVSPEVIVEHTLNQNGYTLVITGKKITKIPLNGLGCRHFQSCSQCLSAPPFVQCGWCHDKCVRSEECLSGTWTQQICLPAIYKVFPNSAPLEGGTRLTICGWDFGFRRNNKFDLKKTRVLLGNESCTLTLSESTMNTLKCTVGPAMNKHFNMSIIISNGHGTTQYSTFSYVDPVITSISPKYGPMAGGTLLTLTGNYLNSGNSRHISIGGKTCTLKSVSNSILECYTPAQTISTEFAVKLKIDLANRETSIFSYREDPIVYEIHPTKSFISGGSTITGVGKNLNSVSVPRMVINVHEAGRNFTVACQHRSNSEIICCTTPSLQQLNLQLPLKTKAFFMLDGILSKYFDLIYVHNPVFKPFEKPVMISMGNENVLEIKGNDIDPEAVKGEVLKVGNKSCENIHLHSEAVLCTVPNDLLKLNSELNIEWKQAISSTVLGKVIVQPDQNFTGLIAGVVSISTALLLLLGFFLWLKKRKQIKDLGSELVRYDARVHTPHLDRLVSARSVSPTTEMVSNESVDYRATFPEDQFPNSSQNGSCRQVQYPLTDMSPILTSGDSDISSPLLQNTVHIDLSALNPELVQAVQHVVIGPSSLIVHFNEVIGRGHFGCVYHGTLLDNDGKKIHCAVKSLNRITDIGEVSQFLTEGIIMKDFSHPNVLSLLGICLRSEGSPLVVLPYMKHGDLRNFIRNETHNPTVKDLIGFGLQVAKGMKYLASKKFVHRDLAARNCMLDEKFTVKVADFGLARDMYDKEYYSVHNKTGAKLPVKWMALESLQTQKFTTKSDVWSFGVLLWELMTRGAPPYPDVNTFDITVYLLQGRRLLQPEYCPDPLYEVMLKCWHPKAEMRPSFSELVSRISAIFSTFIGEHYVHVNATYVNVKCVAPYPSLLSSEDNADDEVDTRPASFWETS
row,SMILES,IC50
1,"Cn1cc(-n2ccc(=O)c(Cc3cccc(NC(=O)OCC4(F)CCOCC4)c3)n2)cn1 [Example 613, (4-fluorotetrahydro-2H-pyran-4-yl)methyl (3-{[1-(1-methyl-1H-pyrazol-4-yl)-4-oxo-1,4-dihydropyridazin-3-yl]methyl}phenyl)carbamate]",< 0.1 µM
2,"Cn1cc(-n2ccc(=O)c(Cc3cccc(NC(=O)OC[C@H]4CCCN4)c3)n2)cn1 [Example 615, (2R)-pyrrolidin-2-ylmethyl (3-{[1-(1-methyl-1H-pyrazol-4-yl)-4-oxo-1,4-dihydropyridazin-3-yl]methyl}phenyl)carbamate]",0.1 to 1 µM
3,"Cn1cc(-n2ccc(=O)c(Cc3cccc(NC(=O)OC[C@@H]4CCCN4)c3)n2)cn1 [Example 616, (2S)-pyrrolidin-2-ylmethyl (3-{[1-(1-methyl-1H-pyrazol-4-yl)-4-oxo-1,4-dihydropyridazin-3-yl]methyl}phenyl)carbamate]",0.1 to 1 µM
4,"Cn1cc(-n2ccc(=O)c(Cc3cccc(NC(=O)OC4CCNCC4)c3)n2)cn1 [Example 618, piperidin-4-yl (3-{[1-(1-methyl-1H-pyrazol-4-yl)-4-oxo-1,4-dihydropyridazin-3-yl]methyl}phenyl)carbamate]",0.1 to 1 µM
5,"CNCCOC(=O)Nc1cccc(Cc2nn(-c3cc(F)c(F)c(F)c3)ccc2=O)c1 [Example 622, 2-(methylamino)ethyl (3-{[4-oxo-1-(3,4,5-trifluorophenyl)-1,4-dihydropyridazin-3-yl]methyl}phenyl)carbamate]",< 0.1 µM
6,"Cn1cc(-n2ccc(=O)c(Cc3cccc(NC(=O)OCCC4CCNCC4)c3)n2)cn1 [Example 624, 2-piperidin-4-ylethyl (3-{[1-(1-methyl-1H-pyrazol-4-yl)-4-oxo-1,4-dihydropyridazin-3-yl]methyl}phenyl)carbamate]",< 0.1 µM
7,"Cn1cc(-n2ccc(=O)c(Cc3cccc(NC(=O)OCCCN4CCNCC4)c3)n2)cn1 [Example 626, 3-piperazin-1-ylpropyl (3-{[1-(1-methyl-1H-pyrazol-4-yl)-4-oxo-1,4-dihydropyridazin-3-yl]methyl}phenyl)carbamate]",< 0.1 µM
8,"N#Cc1cccc(-n2ccc(=O)c(Cc3cccc(NC(=O)OCC4CNC4)c3)n2)c1 [Example 627, azetidin-3-ylmethyl (3-{[1-(3-cyanophenyl)-4-oxo-1,4-dihydropyridazin-3-yl]methyl}phenyl)carbamate]",< 0.1 µM
9,"Cn1cc(-n2ccc(=O)c(Cc3cccc(NC(=O)OCCO)c3)n2)cn1 [Example 630, 2-Hydroxyethyl(3-{[1-(1-methyl-1H-pyrazol-4-yl)-4-oxo-1,4-dihydropyridazin-3-yl]methyl}phenyl)carbamate]",< 0.1 µM
10,"CC(=O)Nc1cccc(Cc2nn(-c3ccccc3)ccc2=O)c1 [Example 631, N-{3-[(4-Oxo-1-phenyl-1,4-dihydropyridazin-3-yl)methyl]phenyl}acetamide]",1 to 3 µM
11,"Cn1cc(-n2ccc(=O)c(Cc3cccc(NC(=O)Cc4ccccc4)c3)n2)cn1 [Example 632, N-(3-{[1-(1-methyl-1H-pyrazol-4-yl)-4-oxo-1,4-dihydropyridazin-3-yl]methyl}phenyl)-2-phenylacetamide]",1 to 3 µM
12,"CCCC(=O)Nc1cccc(Cc2nn(-c3cnn(C)c3)ccc2=O)c1 [Example 634, N-(3-{[1-(1-methyl-1H-pyrazol-4-yl)-4-oxo-1,4-dihydropyridazin-3-yl]methyl}phenyl)butanamide]",0.1 to 1 µM
13,"Cn1cc(-n2ccc(=O)c(Cc3cccc(N4CCCC4=O)c3)n2)cn1 [Example 636, 1-(1-Methyl-1H-pyrazol-4-yl)-3-[3-(2-oxopyrrolidin-1-yl)benzyl]pyridazin-4(1H)-one]",0.1 to 1 µM
14,"CCOC(=O)Nc1cccc(Cc2nn(-c3ccccc3)ccc2=O)c1 [Example 642, Ethyl {3-[(4-oxo-1-phenyl-1,4-dihydropyridazin-3-yl)methyl]phenyl}carbamate]",0.1 to 1 µM
15,"CCOC(=O)Nc1cccc(Cc2nn(-c3cnn(CCO)c3)ccc2=O)c1 [Example 643, Ethyl [3-({1-[1-(2-hydroxyethyl)-1H-pyrazol-4-yl]-4-oxo-1,4-dihydropyridazin-3-yl}methyl)phenyl]carbamate]",< 0.1 µM
16,"CCCOC(=O)Nc1cccc(Cc2nn(-c3cnn(CCO)c3)ccc2=O)c1 [Example 644, propyl [3-({1-[1-(2-hydroxyethyl)-1H-pyrazol-4-yl]-4-oxo-1,4-dihydropyridazin-3-yl}methyl)phenyl] carbamate]",< 0.1 µM

# Continued, values first:
row,IC50,SMILES
1,< 0.1 µM,"Cn1cc(-n2ccc(=O)c(Cc3cccc(NC(=O)OCC(F)(F)CN)c3)n2)cn1 [Example 614, 3-Amino-2,2-difluoropropyl (3-{[1-(1-methyl-1H-pyrazol-4-yl)-4-oxo-1,4-dihydropyridazin-3-yl]methyl}phenyl)carbamate]"
2,< 0.1 µM,"Cn1cc(-n2ccc(=O)c(Cc3cccc(NC(=O)OCC4CCNCC4)c3)n2)cn1 [Example 617, piperidin-4-ylmethyl (3-{[1-(1-methyl-1H-pyrazol-4-yl)-4-oxo-1,4-dihydropyridazin-3-yl]methyl}phenyl)carbamate]"
3,< 0.1 µM,"Cn1cc(-n2ccc(=O)c(Cc3cccc(NC(=O)OCC4(F)CCNCC4)c3)n2)cn1 [Example 620, (4-fluoropiperidin-4-yl)methyl (3-{[1-(1-methyl-1H-pyrazol-4-yl)-4-oxo-1,4-dihydropyridazin-3-yl]methyl}phenyl)carbamate]"
4,< 0.1 µM,"O=C(Nc1cccc(Cc2nn(-c3cc(F)c(F)c(F)c3)ccc2=O)c1)OCCCN1CCNCC1 [Example 623, 3-piperazin-1-ylpropyl (3-{[4-oxo-1-(3,4,5-trifluorophenyl)-1,4-dihydropyridazin-3-yl]methyl}phenyl)carbamate]"
5,< 0.1 µM,"Cn1cc(-n2ccc(=O)c(Cc3cccc(NC(=O)OCCN4CCNCC4)c3)n2)cn1 [Example 625, 2-piperazin-1-ylethyl (3-{[1-(1-methyl-1H-pyrazol-4-yl)-4-oxo-1,4-dihydropyridazin-3-yl]methyl}phenyl)carbmate]"
6,< 0.1 µM,"O=C(Nc1cccc(Cc2nn(-c3cc(F)cc(F)c3)ccc2=O)c1)OCCN1CCNCC1 [Example 628, 2-piperazin-1-ylethyl (3-{[1-(3,5-difluorophenyl)-4-oxo-1,4-dihydropyridazin-3-yl]methyl}phenyl)carbamate]"
7,1 to 3 µM,"Cn1cc(-n2ccc(=O)c(Cc3cccc(NC(=O)OCC(=O)O)c3)n2)cn1 [Example 629, ({[(3-{[1-(1-Methyl-1H-pyrazol-4-yl)-4-oxo-1,4-dihydropyridazin-3-yl]methyl}phenyl)amino]carbonyl}oxy)acetic acid]"
8,< 0.1 µM,"Cn1cc(-n2ccc(=O)c(Cc3cccc(NC(=O)CCc4ccccc4)c3)n2)cn1 [Example 633, N-(3-{[1-(1-methyl-1H-pyrazol-4-yl)-4-oxo-1,4-dihydropyridazin-3-yl]methyl}phenyl)-3-phenylpropanamide]"
9,0.1 to 1 µM,"CCC(=O)Nc1cccc(Cc2nn(-c3cnn(C)c3)ccc2=O)c1 [Example 635, N-(3-{[1-(1-methyl-1H-pyrazol-4-yl)-4-oxo-1,4-dihydropyridazin-3-yl]methyl}phenyl)propanamide]"
10,1 to 3 µM,"Cn1cc(-n2ccc(=O)c(Cc3cccc(N4CCOC4=O)c3)n2)cn1 [Example 637, 1-(1-Methyl-1H-pyrazol-4-yl)-3-[3-(2-oxo-1,3-oxazolidin-3-yl)benzyl]pyridazin-4(1H)-one]"
